Experimental data reported in patent US20090156577A1, “7-AMINO ALKYLIDENYL-HETEROCYCLIC QUINOLONES AND NAPHTHYRIDONES” (priority 2004, published 2009).
In brackets after ≈: the same amount, converted by molar mass. Where two headings read alike, the source gives them in different places.

Tested on: pathogenic bacteria
Assay: MIC by microdilution broth method (NCCLS M7-A4), in vitro antibacterial activity
Format: cell-based
Summary of the method: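 Broth microdilution per NCCLS M7-A4: two-fold serial dilutions in cation-adjusted Mueller-Hinton broth, inoculum about 5×10^4 CFU/well. Trays incubated 16–20 h at 35 °C. MIC read by comparing growth against no-compound growth controls.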

[1] = Staphylococcus aureus, Organism A: Staphylococcus aureus OC4172, read-out: MIC
[2] = Streptococcus pneumoniae, ATCC49619, Organism E: Streptococcus pneumoniae ATCC 49619, read-out: MIC
[3] = Streptococcus pneumoniae, Organism B: fluoroquinolone-resistant clinical isolate of Streptococcus pneumoniae (QRDR amino acid substitutions)
[4] = Streptococcus pneumoniae, Organism C: fluoroquinolone-resistant clinical isolate of Streptococcus pneumoniae (QRDR amino acid substitutions)
[5] = Streptococcus pneumoniae, Organism D: fluoroquinolone-resistant clinical isolate of Streptococcus pneumoniae (QRDR amino acid substitutions)

CC(CN)=C1CN(c2cc3c(c(C)c2F)c(=O)c(C(=O)O)cn3C2CC2)C1 [Compound 367, 7-[3-(2-Amino-1-methyl-ethylidene)-azetidin-1-yl]-1-cyclopropyl-6-fluoro-5-methyl-4-oxo-1,4-dihydro-quinoline-3-carboxylic Acid]
MIC [1]: ≤ 0.015 µg/mL
MIC [2]: 0.12 µg/mL (≈ 0.323 µM)
MIC [3]: 0.25 µg/mL (≈ 0.673 µM)
MIC [4]: 1 µg/mL (≈ 2.69 µM)
MIC [5]: 1 µg/mL (≈ 2.69 µM)

COc1c(N2CC(=C(C)CN)C2)c(F)cc2c(=O)c(C(=O)O)cn([C@@H]3C[C@@H]3F)c12 [Compound 368, 7-[3-(2-Amino-1-methyl-ethylidene)-azetidin-1-yl]-6-fluoro-(1R,2S)-1-(2-fluoro-cyclopropyl)-8-methoxy-4-oxo-1,4-dihydro-quinoline-3-carboxylic Acid]
MIC [1]: 0.25 µg/mL (≈ 0.617 µM)
MIC [2]: 1 µg/mL (≈ 2.47 µM)
MIC [3]: 8 µg/mL (≈ 19.7 µM)
MIC [4]: > 16 µg/mL
MIC [5]: 8 µg/mL (≈ 19.7 µM)

NCC(Cl)=C1CCN(c2c(F)c(N)c3c(=O)c(C(=O)O)cn(C4CC4)c3c2F)CC1 [Compound 369, 5-Amino-7-[4-(2-amino-1-chloro-ethylidene)-piperidin-1-yl]-1-cyclopropyl-6,8-difluoro-4-oxo-1,4-dihydro-quinoline-3-carboxylic Acid]
MIC [1]: 0.03 µg/mL (≈ 0.0684 µM)
MIC [2]: 0.03 µg/mL (≈ 0.0684 µM)
MIC [3]: 0.06 µg/mL (≈ 0.137 µM)
MIC [4]: 0.5 µg/mL (≈ 1.14 µM)
MIC [5]: 0.12 µg/mL (≈ 0.273 µM)

NCC(Cl)=C1CCN(c2c(F)cc3c(=O)c(C(=O)O)cn(C4CC4)c3c2OCF)CC1 [Compound 370, 7-[4-(2-Amino-1-chloro-ethylidene)-piperidin-1-yl]-1-cyclopropyl-6-fluoro-8-fluoromethoxy-4-oxo-1,4-dihydro-quinoline-3-carboxylic Acid]
MIC [1]: 2 µg/mL (≈ 4.41 µM)
MIC [2]: 8 µg/mL (≈ 17.6 µM)
MIC [3]: > 16 µg/mL
MIC [4]: > 16 µg/mL
MIC [5]: 16 µg/mL (≈ 35.3 µM)

Cc1c(N2CCC(=C(Cl)CN)CC2)c(F)cc2c(=O)c(C(=O)O)cn(C3CC3)c12 [Compound 371, 7-[4-(2-Amino-1-chloro-ethylidene)-piperidin-1-yl]-1-cyclopropyl-6-fluoro-8-methyl-4-oxo-1,4-dihydro-quinoline-3-carboxylic Acid]
MIC [1]: ≤ 0.015 µg/mL
MIC [2]: 0.03 µg/mL (≈ 0.0714 µM)
MIC [3]: 0.06 µg/mL (≈ 0.143 µM)
MIC [4]: 0.12 µg/mL (≈ 0.286 µM)
MIC [5]: 0.12 µg/mL (≈ 0.286 µM)

C[C@H]1COc2c(N3CCC/C(=C(/Cl)CN)CC3)c(F)cc3c(=O)c(C(=O)O)cn1c23 [Compound 372, (3S)-9-[(Z)-4-(2-Amino-1-chloro-ethylidene)-azepan-1-yl]-8-fluoro-3-methyl-6-oxo-2,3-dihydro-6H-1-oxa-3a-aza-phenalene-5-carboxylic Acid]
MIC [1]: 0.5 µg/mL (≈ 1.15 µM)
MIC [2]: 2 µg/mL (≈ 4.59 µM)
MIC [4]: 16 µg/mL (≈ 36.7 µM)
MIC [5]: 8 µg/mL (≈ 18.4 µM)

C[C@H]1COc2c(N3CCC/C(=C(\Cl)CN)CC3)c(F)cc3c(=O)c(C(=O)O)cn1c23 [Compound 373, (3S)-9-[(E)-4-(2-Amino-1-chloro-ethylidene)-azepan-1-yl]-8-fluoro-3-methyl-6-oxo-2,3-dihydro-6H-1-oxa-3a-aza-phenalene-5-carboxylic Acid]
MIC [1]: 0.06 µg/mL (≈ 0.138 µM)
MIC [2]: 0.12 µg/mL (≈ 0.275 µM)
MIC [3]: 0.5 µg/mL (≈ 1.15 µM)
MIC [4]: 2 µg/mL (≈ 4.59 µM)
MIC [5]: 1 µg/mL (≈ 2.29 µM)

NC/C(F)=C1\CCCN(c2nc3c(cc2F)c(=O)c(C(=O)O)cn3C2CC2)C1 [Compound 374, (Z)-7-[3-(2-Amino-1-fluoro-ethylidene)-piperidin-1-yl]-1-cyclopropyl-6-fluoro-4-oxo-1,4-dihydro-[1,8]naphthyridine-3-carboxylic acid]
MIC [1]: 0.06 µg/mL (≈ 0.154 µM)
MIC [2]: 0.5 µg/mL (≈ 1.28 µM)
MIC [3]: 2 µg/mL (≈ 5.12 µM)
MIC [4]: 16 µg/mL (≈ 41 µM)
MIC [5]: 4 µg/mL (≈ 10.2 µM)

NC/C=C1/CCCN(c2nc3c(cc2F)c(=O)c(C(=O)O)cn3C2CC2)C1 [Compound 375, (Z)-7-[3-(2-Amino-ethylidene)-piperidin-1-yl]-1-cyclopropyl-6-fluoro-4-oxo-1,4-dihydro-[1,8]naphthyridine-3-carboxylic acid]
MIC [1]: 0.12 µg/mL (≈ 0.322 µM)
MIC [2]: 8 µg/mL (≈ 21.5 µM)
MIC [3]: > 16 µg/mL
MIC [4]: > 16 µg/mL
MIC [5]: > 16 µg/mL

NC/C=C1\CCCN(c2nc3c(cc2F)c(=O)c(C(=O)O)cn3C2CC2)C1 [Compound 376, (E)-7-[3-(2-Amino-ethylidene)-piperidin-1-yl]-1-cyclopropyl-6-fluoro-4-oxo-1,4-dihydro-[1,8]naphthyridine-3-carboxylic acid]
MIC [1]: 0.25 µg/mL (≈ 0.671 µM)
MIC [2]: 1 µg/mL (≈ 2.69 µM)
MIC [4]: > 16 µg/mL
MIC [5]: > 16 µg/mL

C/C(CN)=C1/CCCN(c2nc3c(cc2F)c(=O)c(C(=O)O)cn3C2CC2)C1 [Compound 377, (E)-7-[3-(2-Amino-1-methyl-ethylidene)-piperidin-1-yl]-1-cyclopropyl-6-fluoro-4-oxo-1,4-dihydro-[1,8]naphthyridine-3-carboxylic acid]
MIC [1]: 0.5 µg/mL (≈ 1.29 µM)
MIC [2]: 4 µg/mL (≈ 10.4 µM)
MIC [3]: 16 µg/mL (≈ 41.4 µM)
MIC [4]: 8 µg/mL (≈ 20.7 µM)
MIC [5]: > 16 µg/mL

NC/C(Cl)=C1\CCCN(c2nc3c(cc2F)c(=O)c(C(=O)O)cn3C2CC2)CC1 [Compound 378, (Z)-7-[4-(2-Amino-1-chloro-ethylidene)-azepan-1-yl]-1-cyclopropyl-6-fluoro-4-oxo-1,4-dihydro-[1,8]naphthyridine-3-carboxylic acid]
MIC [1]: 0.25 µg/mL (≈ 0.594 µM)
MIC [2]: 1 µg/mL (≈ 2.38 µM)
MIC [4]: 4 µg/mL (≈ 9.5 µM)
MIC [5]: 16 µg/mL (≈ 38 µM)

NC/C(Cl)=C1/CCCN(c2nc3c(cc2F)c(=O)c(C(=O)O)cn3C2CC2)CC1 [Compound 379, (E)-7-[4-(2-Amino-1-chloro-ethylidene)-azepan-1-yl]-1-cyclopropyl-6-fluoro-4-oxo-1,4-dihydro-[1,8]naphthyridine-3-carboxylic acid]
MIC [1]: 0.25 µg/mL (≈ 0.594 µM)
MIC [2]: 2 µg/mL (≈ 4.75 µM)
MIC [3]: 1 µg/mL (≈ 2.38 µM)
MIC [4]: 8 µg/mL (≈ 19 µM)
MIC [5]: 16 µg/mL (≈ 38 µM)

C/C(CN)=C1\CCCN(c2nc3c(cc2F)c(=O)c(C(=O)O)cn3-c2ccc(F)cc2F)C1 [Compound 380, (Z)-7-[3-(2-Amino-1-methyl-ethylidene)-piperidin-1-yl]-1-(2,4-difluoro-phenyl)-6-fluoro-4-oxo-1,4-dihydro-[1,8]naphthyridine-3-carboxylic acid]
MIC [1]: 0.12 µg/mL (≈ 0.262 µM)
MIC [2]: 0.5 µg/mL (≈ 1.09 µM)
MIC [3]: 8 µg/mL (≈ 17.5 µM)
MIC [4]: 8 µg/mL (≈ 17.5 µM)
MIC [5]: 4 µg/mL (≈ 8.73 µM)

C/C(CN)=C1/CCCN(c2nc3c(cc2F)c(=O)c(C(=O)O)cn3-c2ccc(F)cc2F)C1 [Compound 381, (E)-7-[3-(2-Amino-1-methyl-ethylidene)-piperidin-1-yl]-1-(2,4-difluoro-phenyl)-6-fluoro-4-oxo-1,4-dihydro-[1,8]naphthyridine-3-carboxylic acid]
MIC [1]: 0.5 µg/mL (≈ 1.09 µM)
MIC [2]: 4 µg/mL (≈ 8.73 µM)
MIC [3]: 4 µg/mL (≈ 8.73 µM)
MIC [4]: > 16 µg/mL
MIC [5]: > 16 µg/mL

NC/C(F)=C1\CCCN(c2cc3c(cc2F)c(=O)c(C(=O)O)cn3C2CC2)C1 [Compound 382, (Z)-7-[3-(2-Amino-1-fluoro-ethylidene)-piperidin-1-yl]-1-cyclopropyl-6-fluoro-4-oxo-1,4-dihydro-quinoline-3-carboxylic acid]
MIC [1]: 0.5 µg/mL (≈ 1.28 µM)
MIC [2]: 2 µg/mL (≈ 5.14 µM)
MIC [3]: 8 µg/mL (≈ 20.5 µM)
MIC [4]: > 16 µg/mL
MIC [5]: 16 µg/mL (≈ 41.1 µM)

NC/C=C1/CCCN(c2cc3c(cc2F)c(=O)c(C(=O)O)cn3C2CC2)C1 [Compound 383, (Z)-7-[3-(2-Amino-ethylidene)-piperidin-1-yl]-1-cyclopropyl-6-fluoro-4-oxo-1,4-dihydro-quinoline-3-carboxylic acid]
MIC [1]: 0.12 µg/mL (≈ 0.323 µM)
MIC [2]: 1 µg/mL (≈ 2.69 µM)
MIC [3]: 8 µg/mL (≈ 21.5 µM)
MIC [4]: > 16 µg/mL
MIC [5]: > 16 µg/mL

NC/C=C1\CCCN(c2cc3c(cc2F)c(=O)c(C(=O)O)cn3C2CC2)C1 [Compound 384, (E)-7-[3-(2-Amino-ethylidene)-piperidin-1-yl]-1-cyclopropyl-6-fluoro-4-oxo-1,4-dihydro-quinoline-3-carboxylic acid]
MIC [1]: 1 µg/mL (≈ 2.69 µM)
MIC [2]: 8 µg/mL (≈ 21.5 µM)
MIC [4]: > 16 µg/mL
MIC [5]: > 16 µg/mL

C/C(CN)=C1/CCCN(c2cc3c(cc2F)c(=O)c(C(=O)O)cn3C2CC2)C1 [Compound 385, (E)-7-[3-(2-Amino-1-methyl-ethylidene)-piperidin-1-yl]-1-cyclopropyl-6-fluoro-4-oxo-1,4-dihydro-quinoline-3-carboxylic acid]
MIC [1]: 1 µg/mL (≈ 2.59 µM)
MIC [2]: 8 µg/mL (≈ 20.8 µM)
MIC [3]: > 16 µg/mL
MIC [4]: > 16 µg/mL
MIC [5]: > 16 µg/mL

NC/C(Cl)=C1\CCCN(c2cc3c(cc2F)c(=O)c(C(=O)O)cn3C2CC2)CC1 [Compound 386, (Z)-7-[4-(2-Amino-1-chloro-ethylidene)-azepan-1-yl]-1-cyclopropyl-6-fluoro-4-oxo-1,4-dihydro-quinoline-3-carboxylic acid]
MIC [1]: 0.25 µg/mL (≈ 0.595 µM)
MIC [2]: 2 µg/mL (≈ 4.76 µM)
MIC [4]: 8 µg/mL (≈ 19.1 µM)
MIC [5]: 16 µg/mL (≈ 38.1 µM)

NC/C(Cl)=C1/CCCN(c2cc3c(cc2F)c(=O)c(C(=O)O)cn3C2CC2)CC1 [Compound 387, (E)-7-[4-(2-Amino-1-chloro-ethylidene)-azepan-1-yl]-1-cyclopropyl-6-fluoro-4-oxo-1,4-dihydro-quinoline-3-carboxylic acid]
MIC [1]: 0.5 µg/mL (≈ 1.19 µM)
MIC [2]: 2 µg/mL (≈ 4.76 µM)
MIC [3]: > 16 µg/mL
MIC [4]: 16 µg/mL (≈ 38.1 µM)
MIC [5]: 16 µg/mL (≈ 38.1 µM)

COc1c(N2CCC/C(=C(/F)CN)C2)c(F)cc2c(=O)c(C(=O)O)cn(C3CC3)c12 [Compound 388, (Z)-7-[3-(2-Amino-1-fluoro-ethylidene)-piperidin-1-yl]-1-cyclopropyl-6-fluoro-8-methoxy-4-oxo-1,4-dihydro-quinoline-3-carboxylic acid]
MIC [1]: ≤ 0.25 µg/mL
MIC [2]: 0.5 µg/mL (≈ 1.19 µM)
MIC [3]: 2 µg/mL (≈ 4.77 µM)
MIC [4]: 8 µg/mL (≈ 19.1 µM)
MIC [5]: 2 µg/mL (≈ 4.77 µM)

COc1c(N2CCC/C(=C/CN)C2)c(F)cc2c(=O)c(C(=O)O)cn(C3CC3)c12 [Compound 389, (Z)-7-[3-(2-Amino-ethylidene)-piperidin-1-yl]-1-cyclopropyl--6-fluoro-8-methoxy-4-oxo-1,4-dihydro-quinoline-3-carboxylic acid]
MIC [1]: ≤ 0.015 µg/mL
MIC [2]: 0.06 µg/mL (≈ 0.149 µM)
MIC [3]: 0.5 µg/mL (≈ 1.25 µM)
MIC [4]: 1 µg/mL (≈ 2.49 µM)
MIC [5]: 0.5 µg/mL (≈ 1.25 µM)
